Source: US10947271B2, “Antibacterial agents” (THE UNIVERSITY OF QUEENSLAND, priority 2014, dated 2021)

Columns and labels:
[1] = Stability of compounds in human plasma
Experimental: Briefly test compounds (20 μM) were prepared from a 1 mM stock solution. The human plasma sample (200 μl) was diluted with 160 μl phosphate-buffer saline (PBS, pH 7.4) to a concentration of 50% v/v before use. Solutions were then vortexed and placed on a 37° C. shaker and shaken gently for 10 minutes. 40 μl of the test compounds were then added to the plasma sample and vortexed. For the reaction time t=0 hour, 50 μl of sample was immediately transferred into an eppendorf tube and quenched with 150 μl cold acetonitrile. The remaining plasma solution was incubated and shaken at 37° C. Other samples were collected at time points of 0, 1, 3, 6 and 24 hours whereby 50 μl aliquots were removed and quenched with 150 μl cold acetonitrile. All samples were placed in a 4° C. fridge for 10 minutes then centrifuged at 3000 rpm for 15 minutes. The supernatant (100 μl) was transferred to a glass vial insert for LCMS analysis. The percentage of test compounds remaining at the individual time points relative to sample at time point 0 hour were reported.
Plasma: Human Plasma (Pooled Normal Human Plasma Heparin Anticoagulant 50 mL (IPLA-2 N-04 lot IR09-1001, originally from Innovative Research and imported by BioCore).
All compounds in 100% water (40 μL in 400 μL assay volume equivalent […])
Compounds: 40 μL of the vancomycin derivative solution was added to 160 μL of PBS (pH 7.4) respectively in an Eppendorf tube. 600 μL of cold acetonitrile was added, the tube vortexed and transferred to a glass vial for LC-MS analysis.
Eucatropine: 200 μL of plasma and 190 μL of buffer were vortexed, shaken at 37° C. for 10 minutes. 10 μL of eucatropine solution was then added and the tube vortexed. A 50 μL aliquot was immediately transferred to an Eppendorf tube, 150 μL of cold acetonitrile added and the tube transferred to a 4° C. fridge for 10 minutes. The remaining plasma solution was then transferred to the incubator and shaken at 37° C. The tube was retrieved from the fridge, centrifuged at 3000 rpm for 15 min and 100 μL of supernatant transferred to a glass vial insert for LC-MS analysis. 50 μL aliquots were processed as above at 1, […], 3, 6 and 24 hours and 5 μL was injected into triple quad MS system for analysis. Vancomycin derivatives: 200 μL of plasma and 160 μL of buffer were vortexed and shaken at 37° C. for 10 minutes. 40 μL of compound was then added and the sample was processed as above.

[2] = tested on: Staphylococcus aureus MRSA ATCC 43300; test: MIC assay, S. aureus MRSA ATCC 43300; assay type: cell-based; settings: 24 h incubation, visual reading
Procedure, shortened: (§1)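 Twofold broth microdilution in Mueller Hinton broth; compounds tested from 8 μg/ml to 0.003 μg/ml. Mid-log cultures were inoculated at 5×10e5 CFU/mL and incubated 24 h at 37° C. MIC was the lowest concentration with no visible growth.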

[3] = tested on: Enterococcus faecium MDR Van A ATCC 51559; test: MIC assay, E. faecium MDR Van A ATCC 51559; assay type: cell-based; settings: 24 h incubation, visual reading
Procedure, shortened: as §1

[4] = tested on: Streptococcus pneumoniae MDR ATCC 700677; test: MIC assay, S. pneumoniae MDR ATCC 700677; assay type: cell-based; settings: 24 h incubation, visual reading
Procedure, shortened: as §1

[5] = 0 h (reference time point), 50% human plasma/PBS pH 7.4, 37° C.
[6] = 1 h, 50% human plasma/PBS pH 7.4, 37° C.
[7] = 3 h, 50% human plasma/PBS pH 7.4, 37° C.
[8] = 6 h, 50% human plasma/PBS pH 7.4, 37° C.
[9] = 24 h, 50% human plasma/PBS pH 7.4, 37° C.

Row | Compound | % compound remaining after incubation in 50% human plasma [1, 5] | % compound remaining after incubation in 50% human plasma [1, 6] | % compound remaining after incubation in 50% human plasma [1, 7] | % compound remaining after incubation in 50% human plasma [1, 8] | % compound remaining after incubation in 50% human plasma [1, 9] | Minimum Inhibitory Concentration (MIC) Staph. aureus ATCC43300 [2] | Minimum Inhibitory Concentration (MIC) E. faecium ATCC51559 [3] | Minimum Inhibitory Concentration (MIC) S. pneumoniae ATCC 700677 [4] | also measured
1 | CCCCCCCCCCC(=O)NCC(=O)N[C@@H](CO)C(=O)N[C@@H](CCCCN)C(=O)N[C@@H](CCCCN)C(=O)N[C@@H](CCCCN)C(=O)N[C@@H](CCCCNC(=O)[C@H]1NC(=O)[C@H]2NC(=O)[C@H](NC(=O)[C@@H]3NC(=O)[C@H](CC(N)=O)NC(=O)[C@H](NC(=O)[C@@H](CC(C)C)NC)[C@H](O)c4ccc(c(Cl)c4)Oc4cc3cc(c4O[C@@H]3O[C@H](CO)[C@@H](O)[C@H](O)[C@H]3O[C@H]3C[C@](C)(N)[C@H](O)[C@H](C)O3)Oc3ccc(cc3Cl)[C@H]2O)c2ccc(O)c(c2)-c2c(O)cc(O)cc21)C(=O)O [MCC_000082, nC10CO-GSKKK-K(Vanc)-OH] | 100% | 136% | 252% | 241% | 73% |  |  |  | 
2 | CCCCCCCCCCCCCC(=O)N[C@H](CCCCN)C(=O)N[C@H](CCCCN)C(=O)NCC(=O)NCCNC(=O)[C@H]1NC(=O)[C@H]2NC(=O)[C@H](NC(=O)[C@@H]3NC(=O)[C@H](CC(N)=O)NC(=O)[C@H](NC(=O)[C@@H](CC(C)C)NC)[C@H](O)c4ccc(c(Cl)c4)Oc4cc3cc(c4O[C@@H]3O[C@H](CO)[C@@H](O)[C@H](O)[C@H]3O[C@H]3C[C@](C)(N)[C@H](O)[C@H](C)O3)Oc3ccc(cc3Cl)[C@H]2O)c2ccc(O)c(c2)-c2c(O)cc(O)cc21 [MCC_000227, nC13CO-kkG-NHC2NH-Vanc] | 100% | 102% | 102% | 93% | 94% | xxxxx (xxxxx = <0.01) | xx (xx = 1-4) | xxxxx (xxxxx = <0.01) | 
3 | CCCCCCCCCCC(=O)N[C@@H](CCCCN)C(=O)N[C@@H](CCCCN)C(=O)N[C@@H](CCCCN)C(=O)N[C@@H](CCCCNC(=O)[C@H]1NC(=O)[C@H]2NC(=O)[C@H](NC(=O)[C@@H]3NC(=O)[C@H](CC(N)=O)NC(=O)[C@H](NC(=O)[C@@H](CC(C)C)NC)[C@H](O)c4ccc(c(Cl)c4)Oc4cc3cc(c4O[C@@H]3O[C@H](CO)[C@@H](O)[C@H](O)[C@H]3O[C@H]3C[C@](C)(N)[C@H](O)[C@H](C)O3)Oc3ccc(cc3Cl)[C@H]2O)c2ccc(O)c(c2)-c2c(O)cc(O)cc21)C(=O)O [MCC_000229, nC10CO-KKK-K(Vanc)-OH] | 100% | 87% | 87% | 83% | 93% | xxxx (xxxx = 0.01-<0.1) | xxxx (xxxx = 0.01-<0.1) | xxx (xxx = 0.1-<1) | 
4 | nC13CO-KKK-C(SS-nEt-NH-Vanc)-OH [MCC_000535, reference compound] |  |  |  |  |  |  |  |  | % compound remaining after incubation in 50% human plasma ([1]; human, plasma, 0 h, pH 7.4): 100%; % compound remaining after incubation in 50% human plasma ([1]; human, plasma, 1 h, pH 7.4): 77%; % compound remaining after incubation in 50% human plasma ([1]; human, plasma, 3 h, pH 7.4): 64%; % compound remaining after incubation in 50% human plasma ([1]; human, plasma, 6 h, pH 7.4): 51%; % compound remaining after incubation in 50% human plasma ([1]; human, plasma, 24 h, pH 7.4): 3%
5 | CCCCCCC(CCCC)C(=O)NCCCCC(NC(=O)C(CCCC)CCCCCC)C(=O)NC(CCCCN)C(=O)NC(CCCCNC(=O)C1NC(=O)C2NC(=O)C(NC(=O)C3NC(=O)C(CC(N)=O)NC(=O)C(NC(=O)C(CC(C)C)NC)C(O)c4ccc(c(Cl)c4)Oc4cc3cc(c4OC3OC(CO)C(O)C(O)C3OC3CC(C)(N)C(O)C(C)O3)Oc3ccc(cc3Cl)C2O)c2ccc(O)c(c2)-c2c(O)cc(O)cc21)C(=O)NC (centres unmarked) [MCC_000497] |  |  |  |  |  | xxx (xxx = 0.1-<1) | xxx (xxx = 0.1-<1) | xxx (xxx = 0.1-<1) | 
6 | CCCCCCCCCC(=O)N[C@@H](CCCCN)C(=O)N1CCC(CNC(=O)[C@H]2NC(=O)[C@H]3NC(=O)[C@H](NC(=O)[C@@H]4NC(=O)[C@H](CC(N)=O)NC(=O)[C@H](NC(=O)[C@@H](CC(C)C)NC)[C@H](O)c5ccc(c(Cl)c5)Oc5cc4cc(c5O[C@@H]4O[C@H](CO)[C@@H](O)[C@H](O)[C@H]4O[C@H]4C[C@](C)(N)[C@H](O)[C@H](C)O4)Oc4ccc(cc4Cl)[C@H]3O)c3ccc(O)c(c3)-c3c(O)cc(O)cc32)CC1 [MCC_005488] |  |  |  |  |  | xxxx (xxxx = 0.01-<0.1) | xx (xx = 1-4) | xxxx (xxxx = 0.01-<0.1) | 
7 | CN[C@H](CC(C)C)C(=O)N[C@H]1C(=O)N[C@@H](CC(N)=O)C(=O)N[C@H]2C(=O)N[C@H]3C(=O)N[C@H](C(=O)N[C@H](C(=O)NCCCC[C@H](NC(=O)[C@H](CCCCN)NC(=O)[C@H](CCCCN)NC(=O)c4ccc(Cl)cc4)C(=O)O)c4cc(O)cc(O)c4-c4cc3ccc4O)[C@H](O)c3ccc(c(Cl)c3)Oc3cc2cc(c3O[C@@H]2O[C@H](CO)[C@@H](O)[C@H](O)[C@H]2O[C@H]2C[C@](C)(N)[C@H](O)[C@H](C)O2)Oc2ccc(cc2Cl)[C@H]1O [MCC_005505] |  |  |  |  |  | xx (xx = 1-4) | x (x = >4) | xx (xx = 1-4) | 
8 | CCCCCCCCCCCCCC(=O)N[C@@H](CCCN)C(=O)N[C@@H](CCCN)C(=O)NCC(=O)NCCNC(=O)[C@H]1NC(=O)[C@H]2NC(=O)[C@H](NC(=O)[C@@H]3NC(=O)[C@H](CC(N)=O)NC(=O)[C@H](NC(=O)[C@@H](CC(C)C)NC)[C@H](O)c4ccc(c(Cl)c4)Oc4cc3cc(c4O[C@@H]3O[C@H](CO)[C@@H](O)[C@H](O)[C@H]3O[C@H]3C[C@](C)(N)[C@H](O)[C@H](C)O3)Oc3ccc(cc3Cl)[C@H]2O)c2ccc(O)c(c2)-c2c(O)cc(O)cc21 [MCC_000228] |  |  |  |  |  | xxxxx (xxxxx = <0.01) | xxxx (xxxx = 0.01-<0.1) | xxxxx (xxxxx = <0.01) | 
9 | CCCCCCCC(=O)N[C@@H](CCCCN)C(=O)N[C@@H](CCCCNC(=O)[C@H]1NC(=O)[C@H]2NC(=O)[C@H](NC(=O)[C@@H]3NC(=O)[C@H](CC(N)=O)NC(=O)[C@H](NC(=O)[C@@H](CC(C)C)NC)[C@H](O)c4ccc(c(Cl)c4)Oc4cc3cc(c4O[C@@H]3O[C@H](CO)[C@@H](O)[C@H](O)[C@H]3O[C@H]3C[C@](C)(N)[C@H](O)[C@H](C)O3)Oc3ccc(cc3Cl)[C@H]2O)c2ccc(O)c(c2)-c2c(O)cc(O)cc21)C(=O)O [MCC_005222] |  |  |  |  |  | xx (xx = 1-4) | x (x = >4) | xx (xx = 1-4) | 
10 | CCCCCCCCCN1CCC(C(=O)N[C@@H](CCCCN)C(=O)N[C@@H](CCCCNC(=O)[C@H]2NC(=O)[C@H]3NC(=O)[C@H](NC(=O)[C@@H]4NC(=O)[C@H](CC(N)=O)NC(=O)[C@H](NC(=O)[C@@H](CC(C)C)NC)[C@H](O)c5ccc(c(Cl)c5)Oc5cc4cc(c5O[C@@H]4O[C@H](CO)[C@@H](O)[C@H](O)[C@H]4O[C@H]4C[C@](C)(N)[C@H](O)[C@H](C)O4)Oc4ccc(cc4Cl)[C@H]3O)c3ccc(O)c(c3)-c3c(O)cc(O)cc32)C(N)=O)CC1 [MCC_004825] |  |  |  |  |  | xxxx (xxxx = 0.01-<0.1) | xxx (xxx = 0.1-<1) | xxx (xxx = 0.1-<1) | 
